In US10208015B2, “Aryl-triazolyl pyridines as pest control agents” (BAYER ANIMAL HEALTH GMBH, priority 2014, dated 2019):

Legend:
[1] = logP by HPLC on reversed-phase column (C18), EEC Directive 79/831 Annex V.A8; assay type: physicochemical; details: HPLC, C18, acetonitrile (0.1% formic acid)/water (0.09% formic acid) gradient
Ctenocephalides felis [2] = assay: Ctenocephalides felis in vitro contact test with adult cat fleas; assay type: in vivo; details: application rate 500 g/ha (5 μg/cm^2), after 48 h
Experimental: Ctenocephalides felis—In Vitro Contact Tests with Adult Cat Fleas
(§1) For the coating of the test tubes, 9 mg of active compound are first dissolved in 1 ml of acetone p.a. and then diluted to the desired concentration with acetone p.a. 250 μl of the solution are distributed homogeneously on the inner walls and the base of a 25 ml test tube by turning and rocking on an orbital shaker (rocking rotation at 30 rpm for 2 h). With 900 ppm active compound solution and internal surface 44.7 cm^2, given homogeneous distribution, an area-based dose of 5 μg/cm^2 is achieved.
After the solvent has evaporated off, the tubes are populated with 5-10 adult cat fleas (Ctenocephalides felis), sealed with a perforated plastic lid and incubated in a horizontal position at room temperature and ambient humidity. After 48 h, efficacy is determined. To this end, the test tubes are stood upright and the fleas are knocked to the base of the tube. Fleas which remain motionless at the base or move in an uncoordinated manner are considered to be dead or moribund.
100% efficacy means that all the fleas were dead or moribund. 0% efficacy means that no fleas were harmed.

Rhipicephalus sanguineus = Rhipicephalus sanguineus in vitro contact test with adult brown dog ticks; assay type: in vivo; details: application rate 500 g/ha (5 μg/cm^2), after 48 h
Experimental: Rhipicephalus sanguineus—In Vitro Contact Tests with Adult Brown Dog Ticks
as §1
After the solvent has evaporated off, the tubes are populated with 5-10 adult dog ticks (Rhipicephalus sanguineus), sealed with a perforated plastic lid and incubated in a horizontal position in the dark at room temperature and ambient humidity. After 48 h, efficacy is determined. To this end, the ticks are knocked to the floor of the tube and incubated on a hotplate at 45-50° C. for not more than 5 min. Ticks which remain motionless on the floor or move in such an uncoordinated manner that they are unable to deliberately avoid the heat by climbing upwards are considered to be dead or moribund.
An efficacy of 100% means that all the ticks were dead or moribund. 0% efficacy means that none of the ticks had been harmed.

[3] = test system: Boophilus microplus Parkhurst strain, SP-resistant; assay: Boophilus microplus dip test; assay type: in vivo; details: application rate 100 ppm, assessed after 7 days
Experimental: Boophilus microplus—Dip Test
• Test animals: cattle ticks (Boophilus microplus) Parkhurst strain, SP-resistant • Solvent: dimethyl sulphoxide
10 mg of active compound are dissolved in 0.5 ml of dimethyl sulphoxide. To produce a suitable formulation, the active compound solution is diluted with water to the concentration desired in each case.
This active compound preparation is pipetted into tubes. 8-10 engorged adult female cattle ticks (Boophilus microplus) are transferred into a further tube with holes. The tube is immersed into the active compound preparation, and all the ticks are completely wetted. After the liquid has run out, the ticks are transferred on filter discs into plastic dishes and stored in a climate-controlled room.
Efficacy is assessed after 7 days by laying of fertile eggs. Eggs which are not visibly fertile are stored in a climate-controlled cabinet until the larvae hatch after about 42 days. An efficacy of 100% means that none of the ticks has laid any fertile eggs; 0% means that all the eggs are fertile.

Boophilus microplus = Boophilus microplus injection test; assay type: in vivo; details: application rate 20 μg/animal, assessed after 7 days
Experimental: Boophilus microplus—Injection Test • Solvent: dimethyl sulphoxide […] The animals are transferred into dishes and kept in a climate-controlled room. Efficacy is assessed after 7 days by laying of fertile eggs. Eggs which are not visibly fertile are stored in a climate-controlled cabinet until the larvae hatch after about 42 days.

Ctenocephalides felis [4] = assay: Ctenocephalides felis oral test; assay type: in vivo; details: application rate 100 ppm in citrated cattle blood, after 2 days
From the text: Ctenocephalides felis—Oral Test • Solvent: dimethyl sulphoxide […] Dilution with citrated cattle blood gives the desired concentration. About 20 unfed adult cat fleas (Ctenocephalides felis) are placed into a chamber which is closed at the top and bottom with gauze. A metal cylinder whose bottom end is closed with parafilm is placed onto the chamber. The cylinder contains the blood/active compound preparation, which can be imbibed by the fleas through the parafilm membrane.

Lucilia cuprina = Lucilia cuprina test; assay type: in vivo; details: application rate 100 ppm, L1 larvae, after 2 days
Experimental: (§2) • Solvent: dimethyl sulphoxide
(§3) To produce a suitable preparation of active compound, 10 mg of active compound are mixed with 0.5 ml of dimethyl sulphoxide, and the concentrate is diluted with water to the desired concentration.
About 20 L1 larvae of the Australian sheep blowfly (Lucilia cuprina) are transferred into a test vessel containing minced horsemeat and the active compound preparation of the desired concentration.
After 2 days, the kill in % is determined. 100% means that all the larvae have been killed; 0% means that no larvae have been killed.

Musca domestica = Musca domestica test; assay type: in vivo; details: application rate 100 ppm, adult houseflies, after 2 days
Experimental: as §2, §3
Vessels containing a sponge treated with sugar solution and the active compound preparation of the desired concentration are populated with 10 adult houseflies (Musca domestica).
After 2 days, the kill in % is determined. 100% means that all of the flies have been killed; 0% means that none of the flies have been killed.

Myzus persicae = Myzus persicae spray test; assay type: in vivo; details: application rate 100 g/ha, after 6 days
Experimental: Myzus Persicae—Spray Test […] To produce further test concentrations, the preparation is diluted with emulsifier-containing water. Discs of Chinese cabbage leaves (Brassica pekinensis) infested by all stages of the green peach aphid (Myzus persicae) are sprayed with an active compound preparation of the desired concentration.

Phaedon cochleariae = Phaedon cochleariae spray test; assay type: in vivo; details: application rate 100 g/ha, after 7 days
Experimental: Phaedon Cochleariae—Spray Test
(§4) • Solvent: 78.0 parts by weight of acetone • 1.5 parts by weight of dimethylformamide • Emulsifier: alkylaryl polyglycol ether
(§5) To produce a suitable preparation of active compound, 1 part by weight of active compound is dissolved using the stated parts by weight of solvent and made up with water containing an emulsifier concentration of 1000 ppm until the desired concentration is attained. To produce further test concentrations, the preparation is diluted with emulsifier-containing water.
After 7 days, the efficacy in % is determined. 100% means that all the beetle larvae have been killed; 0% means that no beetle larvae have been killed.

Spodoptera frugiperda = Spodoptera frugiperda spray test; assay type: in vivo; details: application rate 100 g/ha, after 7 days
Experimental: Spodoptera Frugiperda—Spray Test
as §4, §5
Leaf discs of maize (Zea mays) are sprayed with an active compound preparation of the desired concentration and, after drying, populated with caterpillars of the armyworm (Spodopterafrugiperda).
After 7 days, the efficacy in % is determined. 100% means that all the caterpillars have been killed; 0% means that no caterpillars have been killed.

Tetranychus urticae = Tetranychus urticae spray test, OP-resistant; assay type: in vivo; details: application rate 100 g/ha, after 6 days
Experimental: Tetranychus Urticae—Spray Test, OP-Resistant
as §4
To produce further test concentrations, the preparation is diluted with emulsifier-containing water.
After 6 days, the efficacy in % is determined. 100% means that all the spider mites have been killed; 0% means that none of the spider mites have been killed.

SMILES	logP [1]	efficacy (fleas dead or moribund) (Ctenocephalides felis [2]) [%]	efficacy (ticks dead or moribund) (Rhipicephalus sanguineus) [%]	efficacy (laying of fertile eggs) [3] [%]	efficacy (laying of fertile eggs) (Boophilus microplus) [%]	efficacy (kill in %) (Ctenocephalides felis [4]) [%]	efficacy (kill in %) (Lucilia cuprina) [%]	efficacy (kill in %) (Musca domestica) [%]	efficacy in % (Myzus persicae) [%]	efficacy in % (Phaedon cochleariae) [%]	efficacy in % (Spodoptera frugiperda) [%]	efficacy in % (Tetranychus urticae) [%]
Cc1cc(C(F)(C(F)(F)F)C(F)(F)F)cc(C(F)(F)F)c1-n1cc(-c2cnc(Cl)c(C(=O)NC3CC3)c2)nn1 [Example 13]	3.9	100	100	100	100	100	100	100	90	100	100	100
Cc1cc(C(F)(C(F)(F)F)C(F)(F)F)cc(C(F)(F)F)c1-n1cc(-c2cnc(Cl)c(C(=O)NC3(C#N)CC3)c2)nn1 [Example 14]	3.9	80	100	100	100	100	90	100		100	100	100
Cc1cc(C(F)(C(F)(F)F)C(F)(F)F)cc(C(F)(F)F)c1-n1cc(-c2cnc(Cl)c(C(=O)N(C)C3CC3)c2)nn1 [Example 15]	4.3	100		100	100	100	100	100	90	100	100	100
N#CC1(NC(=O)c2cc(-c3cn(-c4c(Cl)cc(C(F)(C(F)(F)F)C(F)(F)F)cc4C(F)(F)F)nn3)cnc2Cl)CC1 [Example 17]	3.9	100		100	100	100	100	100		100		100
CN(C(=O)c1cc(-c2cn(-c3c(Cl)cc(C(F)(C(F)(F)F)C(F)(F)F)cc3OC(F)(F)F)nn2)cnc1Cl)C1CC1 [Example 35]	4.6				100	100	100	100	90	100	100	100
